Test results: ChEMBL document CHEMBL4814006, “Novel amino substituted tetracyclic imidazo[4,5-b]pyridine derivatives: Design, synthesis, antiproliferative activity and DNA/RNA binding study” (Eur J Med Chem, 2021)
The source made the active and inactive calls. The rule behind the calls is not given here.

What was measured:
[1] = system: HCT-116; assay: Antiproliferative activity against human HCT-116 cells assessed as inhibition of cell growth incubated for 72 hrs by MTT assay; assay type: functional, cell-based; settings: HCT-116, 72 h
[2] = system: NCI-H460; assay: Antiproliferative activity against human NCI-H460 cells assessed as inhibition of cell growth incubated for 72 hrs by MTT assay; assay type: functional, cell-based; settings: NCI-H460, 72 h
[3] = system: MCF7; assay: Antiproliferative activity against human MCF7 cells assessed as inhibition of cell growth incubated for 72 hrs by MTT assay; assay type: functional, cell-based; settings: MCF7, 72 h
[4] = system: HEK293; assay: Cytotoxicity against human HEK293 cells assessed as inhibition of cell growth incubated for 72 hrs by MTT assay; assay type: cell-based; settings: HEK293, 72 h
[5] = system: Calf thymus DNA; assay: Binding affinity to calf thymus DNA assessed as binding constant in sodium cacodylate buffer at pH 7 by fluorescence spectroscopy; settings: Bos taurus
[6] = system: Calf thymus DNA; assay: Binding affinity to calf thymus DNA assessed as ratio of bound compound to polynucleotide phosphate in sodium cacodylate buffer at pH 7 by fluorescence spectroscopy based Scatchard analysis; settings: Bos taurus
[7] = system: Calf thymus DNA; assay: Binding affinity to calf thymus DNA assessed as ratio of fluorescence intensity of compound-polynucleotide complex to fluorescence intensity of compound in sodium cacodylate buffer at pH 7 by fluorescence spectroscopy based Scatchard method; settings: Bos taurus
[8] = system: Poly(dA-dU)oligonucleotide; assay: Binding affinity to polyA-polyU RNA (unknown origin) assessed as binding constant in sodium cacodylate buffer at pH 7 by fluorescence spectroscopy; assay type: nucleic-acid assay
[9] = system: Poly(dA-dU)oligonucleotide; assay: Binding affinity to polyA-polyU RNA (unknown origin) assessed as ratio of bound compound to polynucleotide phosphate in sodium cacodylate buffer at pH 7 by fluorescence spectroscopy based Scatchard method; assay type: nucleic-acid assay
[10] = system: Poly(dA-dU)oligonucleotide; assay: Binding affinity to polyA-polyU RNA (unknown origin) assessed as ratio of fluorescence intensity of compound-polynucleotide complex to fluorescence intensity of compound in sodium cacodylate buffer at pH 7 by fluorescence spectroscopy based Scatchard method; assay type: nucleic-acid assay
[11] = system: Poly(dA-dT)oligonucleotide; assay: Binding affinity to poly(dAdT)2 DNA (unknown origin) assessed as binding constant in sodium cacodylate buffer at pH 7 by fluorescence spectroscopy; assay type: nucleic-acid assay
[12] = system: Poly(dA-dT)oligonucleotide; assay: Binding affinity to poly(dAdT)2 DNA (unknown origin) assessed as ratio of bound compound to polynucleotide phosphate in sodium cacodylate buffer at pH 7 by fluorescence spectroscopy based Scatchard method; assay type: nucleic-acid assay
[13] = system: Poly(dA-dT)oligonucleotide; assay: Binding affinity to poly(dAdT)2 DNA (unknown origin) assessed as ratio of fluorescence intensity of compound-polynucleotide complex to fluorescence intensity of compound in sodium cacodylate buffer at pH 7 by fluorescence spectroscopy based Scatchard method; assay type: nucleic-acid assay
[14] = system: Poly(dG-dC)oligonucleotide; assay: Binding affinity to poly(dGdC)2 DNA (unknown origin) assessed as binding constant in sodium cacodylate buffer at pH 7 by fluorescence spectroscopy; assay type: nucleic-acid assay
[15] = system: Poly(dG-dC)oligonucleotide; assay: Binding affinity to poly(dGdC)2 DNA (unknown origin) assessed as ratio of bound compound to polynucleotide phosphate in sodium cacodylate buffer at pH 7 by fluorescence spectroscopy based Scatchard method; assay type: nucleic-acid assay
[16] = system: Poly(dG-dC)oligonucleotide; assay: Binding affinity to poly(dGdC)2 DNA (unknown origin) assessed as ratio of fluorescence intensity of compound-polynucleotide complex to fluorescence intensity of compound in sodium cacodylate buffer at pH 7 by fluorescence spectroscopy based Scatchard method; assay type: nucleic-acid assay
[17] = system: Calf thymus DNA; assay: Binding affinity to calf thymus DNA assessed as change in melting temperature in sodium cacodylate buffer at pH 7 at compound:polynucleotide concentration ratio of 0.3 by UV/Vis spectrophotometric analysis; assay type: nucleic-acid assay; settings: Bos taurus
[18] = system: Poly(dA-dU)oligonucleotide; assay: Binding affinity to polyA-polyU RNA (unknown origin) assessed as change in melting temperature in sodium cacodylate buffer at pH 7 at compound:polynucleotide concentration ratio of 0.3 by UV/vis spectrophotometric analysis; assay type: nucleic-acid assay
[19] = system: Poly(dA-dT)oligonucleotide; assay: Binding affinity to poly(dAdT)2 DNA (unknown origin) assessed as change in melting temperature in sodium cacodylate buffer at pH 7 at compound:polynucleotide concentration ratio of 0.3 by UV/Vis spectrophotometric analysis; assay type: nucleic-acid assay
[20] = system: Quadruplex DNA; assay: Binding affinity to human Tel22 G quadruplex DNA assessed as binding constant in sodium cacodylate buffer at pH 7 at binding stoichiometry ratio of 1:1 by fluorescence spectroscopy; assay type: nucleic-acid assay
[21] = system: Quadruplex DNA; assay: Binding affinity to human Tel22 G quadruplex DNA assessed as ratio of fluorescence intensity of compound-polynucleotide complex to fluorescence intensity of compound in sodium cacodylate buffer at pH 7 at binding stoichiometry ratio of 1:1 by fluorescence spectroscopy; assay type: nucleic-acid assay
[22] = system: Quadruplex DNA; assay: Binding affinity to human Tel22 G quadruplex DNA assessed as change in melting temperature in sodium cacodylate buffer at pH 7 by UV/Vis spectrophotometric analysis; assay type: nucleic-acid assay
[23] = system: Poly(dA-dT)oligonucleotide; assay: Binding affinity to poly(dAdT)2 DNA (unknown origin) in sodium cacodylate buffer at pH 7 by CD spectroscopy; assay type: nucleic-acid assay
[24] = system: Poly(dG-dC)oligonucleotide; assay: Binding affinity to poly(dGdC)2 DNA (unknown origin) in sodium cacodylate buffer at pH 7 by CD spectroscopy; assay type: nucleic-acid assay
[25] = system: Poly(dA-dU)oligonucleotide; assay: Binding affinity to polyA-polyU RNA (unknown origin) in sodium cacodylate buffer at pH 7 by CD spectroscopy; assay type: nucleic-acid assay
[26] = system: Quadruplex DNA; assay: Binding affinity to human Tel22 G quadruplex DNA assessed as ratio of fluorescence intensity of compound-polynucleotide complex to fluorescence intensity of compound in sodium cacodylate buffer at pH 7 at binding stoichiometry ratio of 1:2 by fluorescence spectroscopy; assay type: nucleic-acid assay
[27] = system: Quadruplex DNA; assay: Binding affinity to human Tel22 G quadruplex DNA assessed as binding constant in sodium cacodylate buffer at pH 7 at binding stoichiometry ratio of 1:2 by fluorescence spectroscopy; assay type: nucleic-acid assay
[28] = system: Quadruplex DNA; assay: Binding affinity to human Tel22 G quadruplex DNA in sodium cacodylate buffer at pH 7 by CD spectroscopy; assay type: nucleic-acid assay

| IC50 [1] [µM] | IC50 [2] [µM] | IC50 [3] [µM] | log Ks [8] | Ratio [9] | Ratio [10] | log Ks [11] | Ratio [12] | Ratio [13] | log Ks [14] | Ratio [15] | Ratio [16] | ΔTm [17] [°C] | ΔTm [18] [°C] | ΔTm [19] [°C] | log Ks [20] | Compound | IC50 [4] [µM] | log Ks [5] | Ratio [6] | Ratio [7] | other results |
| --- | --- | --- | --- | --- | --- | --- | --- | --- | --- | --- | --- | --- | --- | --- | --- | --- | --- | --- | --- | --- | --- |
| 2.3 | 11 | 12 | 5.5 | 0.4 | 0.8 | 6.4 | 0.4 | 0.8 | 5.6 | 0.4 | 0.4 | 4.2 | 4.5 | 9.9 | 5.35 | CN(C)CCCNc1ccc2cc(C#N)c3nc4ncccc4n3c2c1 | 4 | 6 | 0.4 | 0.5 | Ratio [21]: 0.66; ΔTm [22]: 2 °C; Activity [23]: Active; Activity [24]: Active; Activity [25]: Active; Activity [28]: Active |
| 3.5 | 7 | 3 |  |  |  |  |  |  |  |  |  |  |  |  |  | N#Cc1c(N2CCNCC2)c2ccccc2n2c1nc1ncccc12 |  |  |  |  |  |
| 0.8 | 2 | 3.2 |  |  |  |  |  |  |  |  |  |  |  |  |  | CN(C)CCCNc1c(C#N)c2nc3ncccc3n2c2ccccc12 | 2.6 |  |  |  |  |
| 14 | 17.5 | 14 | 4.7 | 0.1 | 7.1 | 5.1 | < 0.1 | 8.3 | 5.5 | < 0.1 | 0.5 | 0 | 0.6 | 0 | 4.69 | CC(C)CNc1c(C#N)c2nc3ncccc3n2c2ccccc12 | > 100 | 4.5 | < 0.1 | 2.2 | Ratio [21]: 4.75; ΔTm [22]: 1.4 °C; Activity [23]: Active; Activity [24]: inactive; Activity [28]: Active |
| ≥ 100 | ≥ 100 | ≥ 100 |  |  |  |  |  |  |  |  |  |  |  |  |  | N#Cc1c(N2CCCCC2)c2ccccc2n2c1nc1ncccc12 |  |  |  |  |  |

Second part, the compound before the results:

| Compound | IC50 [1] [µM] | IC50 [2] [µM] | IC50 [3] [µM] | log Ks [8] | Ratio [9] | Ratio [10] | log Ks [11] | Ratio [12] | Ratio [13] | log Ks [14] | Ratio [15] | Ratio [16] | ΔTm [17] [°C] | ΔTm [18] [°C] | ΔTm [19] [°C] | log Ks [20] | IC50 [4] [µM] | log Ks [5] | Ratio [6] | Ratio [7] | other results |
| --- | --- | --- | --- | --- | --- | --- | --- | --- | --- | --- | --- | --- | --- | --- | --- | --- | --- | --- | --- | --- | --- |
| N#Cc1c(N2CCNCC2)c2ccc(N3CCNCC3)cc2n2c1nc1ncccc12 | ≥ 100 | ≥ 100 | ≥ 100 | 6.5 | 0.1 | 1.8 | 6.8 | < 0.1 | 1.3 | 6.6 | 0.2 | 0 | 6.6 | 13.5 | 11.1 | 5.33 | > 100 | 6.4 | 0.1 | 0 | Ratio [21]: 0.62; ΔTm [22]: 2.5 °C; Activity [23]: Active; Activity [24]: Active; Activity [25]: Active; Ratio [26]: 0.89; log Ks [27]: 7.16 |
| N#Cc1cc2ccc(N3CCCCC3)cc2n2c1nc1cccnc12 | 5.5 | ≥ 100 | 3 |  |  |  |  |  |  |  |  |  |  |  |  |  |  |  |  |  |  |
| N#Cc1cc2ccc(N3CCCCC3)cc2n2c1nc1ncccc12 | 10 | 49 | 5 |  |  |  |  |  |  |  |  |  |  |  |  |  |  |  |  |  |  |
| N#Cc1cc2ccc(F)cc2n2c1nc1ncccc12 | ≥ 100 | ≥ 100 | ≥ 100 |  |  |  |  |  |  |  |  |  |  |  |  |  |  |  |  |  |  |
| N#Cc1c(N2CCCCC2)c2ccccc2n2c1nc1cccnc12 | 47 | ≥ 100 | 16 |  |  |  |  |  |  |  |  |  |  |  |  |  |  |  |  |  |  |
| CC(C)CNc1ccc2cc(C#N)c3nc4cccnc4n3c2c1 | 0.5 | 0.3 | 0.4 |  |  |  |  |  |  |  |  |  |  |  |  |  | 0.5 |  |  |  |  |
| N#Cc1c(N2CCNCC2)c2ccc(N3CCNCC3)cc2n2c1nc1cccnc12 | 0.4 | 0.7 | 0.4 | 6.6 | 0.1 | 2 | 6.8 | 0.2 | 1.5 | 6.8 | 0.3 | < 0.1 | 7.5 | 15 | 14.3 | 5.04 | 0.2 | 6.3 | 0.3 | 0.1 | Ratio [21]: 0.77; Activity [23]: Active; Activity [24]: Active; Activity [25]: Active; Ratio [26]: 0.81; log Ks [27]: 6.85 |
| N#Cc1c(N2CCCCC2)c2ccc(N3CCCCC3)cc2n2c1nc1cccnc12 | 1 | ≥ 100 | 0.5 |  |  |  |  |  |  |  |  |  |  |  |  |  | > 100 |  |  |  |  |
